Measured values: patent US5459129A, “Condensed heterocyclic compounds, their production and use” (Takeda Chemical Industries, Ltd., priority 1990, dated 1995)

Legend:
[1] = test system: Meth A fibrosarcoma (Meth A) cells; assay: Inhibiting action against growth of Meth A fibrosarcoma cells in vitro; type: cell-based; conditions: 72 hours culture, Coulter counter, read-out: IC50 (concentration required for decreasing the number of cells in the untreated control group by 50%)
Protocol: Meth A cells (2×10^4 /ml) prepared by a conventional method were inoculated into each well of the 12-microwell plate (2.0 ml in a well), and subjected to standing culture at 37° C. under 5% CO2. The compounds obtained in Working Examples dissolved at appropriate concentrations were diluted to 2-10 times stepwise with an MEM (Nissui Pharmaceutical Co., Ltd.) solution, to and the resulting dilutions were added to the culture medium. The medium was again subjected to standing culture at 37° C. under 5% CO2 for 72 hours. Then, the total number of cells at each concentration was measured by Coulter counter (Coulter Electronic, Florida in U.S.A.), and the average value of the cells in three wells was expressed by the number of cells per milliliter.
The concentrations of the respective compounds required for decreasing the number of cells in the untreated control group by 50% was made IC50 of the respective compounds.

[2] = molecular target: T1, thymidylate acid synthase (TS) (Mus musculus, UniProt P07607); assay: Determination of TS inhibiting action; type: biochemical; conditions: roughly refined TS fraction from Meth A fibrosarcoma cells; [3H]dUMP, 1 hour at 37° C.; read-out: IC50 TS (concentration required for 50% inhibiting the TS activity)
T1 construct: endogenous in cells; host or cells: Meth A fibrosarcoma cells (sonicated; 100,000 x g supernatant)
T1 sequence (P07607 whole entry): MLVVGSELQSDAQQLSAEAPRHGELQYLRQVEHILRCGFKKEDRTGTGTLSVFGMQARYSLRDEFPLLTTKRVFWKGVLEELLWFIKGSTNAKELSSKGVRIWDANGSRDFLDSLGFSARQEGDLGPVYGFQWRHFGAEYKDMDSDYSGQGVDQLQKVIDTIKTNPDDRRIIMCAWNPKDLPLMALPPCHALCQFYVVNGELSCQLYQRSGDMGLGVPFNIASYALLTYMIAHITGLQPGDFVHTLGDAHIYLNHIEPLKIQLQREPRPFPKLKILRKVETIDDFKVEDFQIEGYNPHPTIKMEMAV
Protocol: A roughly refined fraction of TS was prepared from Meth A fibrosarcoma cells serially cultivated in vitro. For culturing the cells, Eagle's minimum essential medium containing 10% (v/v) bovine fetal serum [MEM; Nissui Pharmaceutical Co. Ltd.] was used. The cells in logarithmic growth were recovered and washed twice with a physiological aqueous saline solution buffered with phosphate, which was then suspended in 0.2M sucrose, 0.01M Tris.HCl buffer solution (pH 7.5). The cells were destroyed by ultrasonic wave, and the suspension was subjected to centrifugation (100,000×g), then the supernatant was collected. Using bovine γ-groblin as the standard protein, the protein concentration was measured by using a protein.dye reagent (Bio-Rad), so that the protein concentration was adjusted to 10 mg/ml.
Enzymic reaction was conducted by partially modifying the method described in Biochemistry 5, 3546 (1966). The composition of the reaction medium was as follows; 0.058% (v/v) formaldehyde, 6.78 mM sodium fluoride, 0.2 mM 2-mercapto ethanol, 6.24 mg/ml bovine serum albumin, 80 μM 2'-deoxyuridine-5'-1 phosphoric acid (dUMP), 80 μM tetrahydrofolic acid, 2 mg/ml roughly refined TS fraction and 0.173M Tris.HCl buffer solution (pH 7.5). To the reaction medium were added the compounds of various concentrations obtained in Working Examples. 540 KBg of [^3 H] dUMP relative to 50 μl of the ultimate reaction medium was added, and the reaction was allowed to proceed for 1 hour at 37° C. in a 96-microwell plate. After completion of the reaction, 26.65% trichloroacetic acid and 3.33 mg/ml dUMP were added to suspend the reaction. To the reaction mixture was added 220 μl of 11.4 mg/ml activated charcoal. The whole mixture was subjected to centrifugation, and the radioactivity in 100 μl of the supernatant was measured by liquid scintillation counter to determine the concentration required for 50% inhibiting the TS activity (ICa50), as shown in Table 1.

[3] = molecular target: T2, 5-aminoimidazole-4-carboxyamide ribonucleotide transformylase (AICARTF) (Homo sapiens, UniProt P31939); assay: Measurement of AICARTF inhibiting action; type: biochemical; conditions: AICARTF prepared from CCRF-CEM human lymphoblast leukemia cells; absorbance at 298 nm for 15 minutes; read-out: IC50 AICARTF (concentration required for 50% inhibiting the activity of AICARTF)
T2 construct: AICARTF was prepared from CCRF-CEM human lymphoblast leukemia cells; endogenous in cells; host or cells: CCRF-CEM human lymphoblast leukemia cells
T2 sequence (P31939 whole entry): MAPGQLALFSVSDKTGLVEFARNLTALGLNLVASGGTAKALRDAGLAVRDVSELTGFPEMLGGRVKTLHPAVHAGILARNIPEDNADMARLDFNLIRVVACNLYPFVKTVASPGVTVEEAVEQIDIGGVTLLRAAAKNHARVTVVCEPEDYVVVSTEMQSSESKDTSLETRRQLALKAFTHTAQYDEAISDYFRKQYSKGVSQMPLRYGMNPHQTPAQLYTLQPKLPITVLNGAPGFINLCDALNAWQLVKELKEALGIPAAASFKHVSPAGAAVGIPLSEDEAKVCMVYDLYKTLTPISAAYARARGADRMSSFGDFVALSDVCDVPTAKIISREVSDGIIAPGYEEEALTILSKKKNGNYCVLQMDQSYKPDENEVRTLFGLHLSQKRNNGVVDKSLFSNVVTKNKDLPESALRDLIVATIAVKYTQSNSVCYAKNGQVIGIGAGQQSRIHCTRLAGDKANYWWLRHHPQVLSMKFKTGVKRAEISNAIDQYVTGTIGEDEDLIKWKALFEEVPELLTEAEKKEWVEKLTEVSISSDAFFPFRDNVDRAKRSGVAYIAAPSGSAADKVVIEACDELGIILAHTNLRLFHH
Protocol: AICARTF was prepared from CCRF-CEM human lymphoblast leukemia cells by partially modifying the method described in Biochemistry 20 337 (1981), S. J. Benkovic, et al.
The enzymic reaction was conducted by adding the compounds of various concentrations in Working Examples to 0.95 ml of a solution consisting of a […] Tris.HCl buffer solution (pH 7.4), 5 μM 2-mercaptoethanol,25 μM potassium chloride, 0.1 μM (-)-10-formyl tetrahydrofolic acid and AICARTF, and, before starting the reaction, 0.05 ml of 1 mM 5-aminoimidazole-4-carboxylamide ribonucleotide.
The UV spectrum was measured at 298 nm for 15 minutes at the interval of 15 seconds to evaluate by the increase of absorbance due to the production of tetrahydrofolic acid to determine the concentration required for 50% inhibiting the activity of AICARTF (IC50).

Row | SMILES | IC50 [1] [µM] | IC50 [2] [µM] | IC50 [3] [µM]
1 | Nc1nc(N)c2c(CCCc3ccc(C(=O)N[C@@H](CCC(=O)N[C@@H](CCC(=O)O)C(=O)O)C(=O)O)cc3)c[nH]c2n1 [Ex. 6, [N-[4-[3-(2,4-diamino-7H-pyrrolo[2,3-d]pyrimidin-5-yl)propyl]benzoyl]-γ-L-glutamyl]-L-glutamic acid] | 0.61 | 36 | 9
2 | Nc1nc(N)c2c(CCCc3ccc(C(=O)N[C@@H](CCC(=O)N[C@@H](CCC(=O)N[C@@H](CCC(=O)O)C(=O)O)C(=O)O)C(=O)O)cc3)c[nH]c2n1 [Ex. 7, [N-[4-[3-(2,4-diamino-7H-pyrrolo[2,3-d]pyrimidin-5-yl)propyl]benzoyl]-γ-L-glutamyl]-γ-L-glutamyl-L-glutamic acid] | 0.58 | 40 | 6
3 | Nc1nc(N)c2c(CCCc3ccc(C(=O)N[C@@H](CCC(=O)N[C@@H](CCC(=O)N[C@@H](CCC(=O)O)C(=O)O)C(=O)O)C(=O)O)cc3)c[nH]c2n1 [Ex. 8, [N-[4-[3-(2,4-diamino-7H-pyrrolo[2,3-d]pyrimidin-5-yl)propyl]benzoyl]-γ-L-glutamyl]-γ-L-glutamyl-γ-L-glutamic acid] |  | 21 | 0.6
4 | Nc1nc(N)c2c(CCCc3ccc(C(=O)N[C@@H](CCC(=O)N[C@@H](CCC(=O)N[C@@H](CCC(=O)N[C@@H](CCC(=O)N[C@@H](CCC(=O)O)C(=O)O)C(=O)O)C(=O)O)C(=O)O)C(=O)O)cc3)c[nH]c2n1 [Ex. 9, [N-[4-[3-(2,4-diamino-7H-pyrrolo[2,3-d]pyrimidin-5-yl)propyl]benzoyl]-γ-L-glutamyl]-γ-L-glutamyl-γ-L-glutamyl-γ-L-glutamyl-L-glutamic acid] |  | 20 | 0.4
5 | Nc1nc(N)c2c(CCCc3ccc(C(=O)N[C@@H](CCC(=O)N[C@@H](CCC(=O)N[C@@H](CCC(=O)N[C@@H](CCC(=O)N[C@@H](CCC(=O)N[C@@H](CCC(=O)O)C(=O)O)C(=O)O)C(=O)O)C(=O)O)C(=O)O)C(=O)O)cc3)c[nH]c2n1 [Ex. 10, [N-[4-[3-(2,4-diamino-7H-pyrrolo[2,3-d]pyrimidin-5-yl)propyl]benzoyl]-γ-L-glutamyl]-γ-L-glutamyl-γ-L-glutamyl-γ-L-glutamyl-γ-L-glutamyl-L-glutamic acid] |  | 20 | 0.2
